Data on 1 molecule can be found in patent US20240350525A1, “HEART DISEASE AGENT AND METHOD FOR IMPROVING HEART DISEASE” (MIRAILAB BIOSCIENCE INC., priority 2021, published 2024).

The test system of this test is subject. Put plainly: Electrocardiography before and after oral ingestion of NMN capsules in a subject with suspected ventricular extrasystole. The format is in vivo, human. The method, then:
On Jun. 4, 2020, electrocardiography was performed on a subject by placing the subject in the supine position, putting clips on the extremities, attaching electrodes to the chest, and using an electrocardiograph (product name: Electrocardiograph ECG-2250, manufactured by NIHON KOHDEN CORPORATION) with leads I to III and leads aVR, aVL, and aVF. The paper feed speed of the electrocardiogram was set to 25 mm/second, and the vertical axis was set to 1 mV=10 mm for recording. The result is indicated in the electrocardiogram of FIG. 2 (horizontal axis: time (second), vertical axis: electric potential (mV)).
Afterwards, from Oct. 18, 2020, the subject was caused to ingest (take orally) one capsule per day of NMN pure 3000 plus (NMN 50 mg/capsule, manufactured by MIRAILAB BIOSCIENCE Inc., trade name) for 47 consecutive days.
Then, on Jan. 4, 2021, electrocardiography was performed again on the above-described subject similarly as described above. The result is indicated in the electrocardiogram of FIG. 3 (horizontal axis: time (second), vertical axis: electric potential (mV)). […] From this, it was confirmed that NMN ingestion was effective for electrocardiogram abnormalities and arrhythmias.

With `NC(=O)c1ccc[n+]([C@@H]2O[C@H](COP(=O)([O-])O)[C@@H](O)[C@H]2O)c1` [NMN, nicotinamide mononucleotide], the heart rate (after ingestion of one capsule per day (NMN 50 mg/capsule) for 47 consecutive days, 69 bpm before ingestion) stood at 57 bpm. Also, the electrocardiogram waveforms result (one subject, one capsule per day (NMN 50 mg/capsule) orally for 47 consecutive days, ECG on Jan. 4, 2021) is “appeared with regularity in order”. Also, the “QRS complexes having a wide and odd-shaped waveform” value (one subject, one capsule per day (NMN 50 mg/capsule) orally for 47 consecutive days, ECG on Jan. 4, 2021, complexes were recognized before ingestion) is “not recognized”. Also, the “effect on electrocardiogram abnormalities and arrhythmias” value (overall conclusion, one subject, NMN 50 mg/day orally for 47 consecutive days) is recorded as “effective”.
